Measurements as given in US20140243335A1, “SUBSTITUTED HYDOXAMIC ACIDS AND USES THEREOF” (Millennium Pharmaceuticals, Inc., priority 2010, published 2014).

Target: T1, purified human HDAC6 (Homo sapiens, UniProt Q9UBN7)
T1 construct: purchased BPS Bioscience 5006
T1 sequence (Q9UBN7 1-1215): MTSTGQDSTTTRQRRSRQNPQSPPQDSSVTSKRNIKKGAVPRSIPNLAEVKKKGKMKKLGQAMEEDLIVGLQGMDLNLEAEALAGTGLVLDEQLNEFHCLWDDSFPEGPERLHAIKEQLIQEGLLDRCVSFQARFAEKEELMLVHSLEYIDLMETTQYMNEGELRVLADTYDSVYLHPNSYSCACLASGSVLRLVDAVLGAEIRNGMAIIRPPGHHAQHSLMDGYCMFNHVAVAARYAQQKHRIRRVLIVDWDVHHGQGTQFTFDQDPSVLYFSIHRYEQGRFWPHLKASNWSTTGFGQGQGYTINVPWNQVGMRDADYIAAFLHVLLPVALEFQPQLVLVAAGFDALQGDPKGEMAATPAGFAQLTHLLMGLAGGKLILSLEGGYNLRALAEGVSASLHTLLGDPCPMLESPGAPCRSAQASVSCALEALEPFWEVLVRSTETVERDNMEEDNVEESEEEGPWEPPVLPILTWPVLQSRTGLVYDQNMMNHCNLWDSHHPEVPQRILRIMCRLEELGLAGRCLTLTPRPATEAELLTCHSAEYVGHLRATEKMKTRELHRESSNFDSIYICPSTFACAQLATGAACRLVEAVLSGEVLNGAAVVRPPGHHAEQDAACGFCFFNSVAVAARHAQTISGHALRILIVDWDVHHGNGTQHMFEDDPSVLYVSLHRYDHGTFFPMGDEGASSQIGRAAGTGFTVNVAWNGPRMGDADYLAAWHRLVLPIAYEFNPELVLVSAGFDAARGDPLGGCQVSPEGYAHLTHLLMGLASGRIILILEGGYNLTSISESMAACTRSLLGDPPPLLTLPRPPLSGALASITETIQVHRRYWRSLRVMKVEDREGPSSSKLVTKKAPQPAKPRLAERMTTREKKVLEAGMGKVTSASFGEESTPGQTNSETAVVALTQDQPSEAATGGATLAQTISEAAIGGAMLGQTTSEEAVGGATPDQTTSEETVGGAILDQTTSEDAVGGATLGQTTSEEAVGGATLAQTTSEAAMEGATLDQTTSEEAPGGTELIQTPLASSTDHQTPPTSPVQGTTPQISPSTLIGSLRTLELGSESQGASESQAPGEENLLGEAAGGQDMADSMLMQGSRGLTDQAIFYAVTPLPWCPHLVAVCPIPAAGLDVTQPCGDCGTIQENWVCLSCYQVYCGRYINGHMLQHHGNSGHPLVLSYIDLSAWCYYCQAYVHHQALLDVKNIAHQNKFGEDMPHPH
Experiment: HDAC6 Enzyme Assay
Assay type: biochemical
Conditions: HDAC6 inhibition at a compound concentration of 0.412 μM; read-out: Percent Inhibition at 0.412 μM
Protocol: To measure the inhibition of HDAC6 activity, purified human HDAC6 (BPS Bioscience; Cat. No. 5006) is incubated with substrate Ac-Arg-Gly-Lys(Ac)-AMC peptide (Bachem Biosciences; Cat. No. I-1925) for 1 hour at 30° C. in the presence of test compounds or vehicle DMSO control. The reaction is stopped with the HDAC inhibitor trichostatin A (Sigma; Cat. No. T8552) and the amount of Arg-Gly-Lys-AMC generated is quantitated by digestion with trypsin (Sigma; Cat. No. T1426) and subsequent measurement of the amount of AMC released using a fluorescent plate reader (Pherastar; BMG Technologies) set at Ex 340 nm and Em 460 nm. Concentration response curves are generated by calculating the fluorescence increase in test compound-treated samples relative to DMSO-treated controls, and enzyme inhibition (IC50) values are determined from those curves.

Row | inhibition at 0.412 µM | Compound
1 | 86% | CN(C)CCOc1cccc(C2CCc3ccc(C(=O)NO)cc3C2)c1 (centres unmarked) [Compound I-194, 7-{3-[2-(dimethylamino)ethoxy]phenyl}-N-hydroxy-5,6,7,8-tetrahydronaphthalene-2-carboxamide]
2 | 95% | CCN1CCC(NC(=O)c2cc(OC3CCc4cc(C(=O)NO)ccc4C3)ccn2)CC1 (centres unmarked) [Compound I-227, N-(1-ethylpiperidin-4-yl)-4-({6-[(hydroxyamino)carbonyl]-1,2,3,4-tetrahydronaphthalen-2-yl}oxy)pyridine-2-carboxamide]
3 | 94% | CC(C)(C)OC(=O)N1CCC(C(=O)Nc2cc(OC3CCc4cc(C(=O)NO)ccc4C3)ccn2)CC1 (centres unmarked) [Compound I-224, tert-butyl 4-({[4-({6-[(hydroxyamino)carbonyl]-1,2,3,4-tetrahydronaphthalen-2-yl}oxy)pyridin-2-yl]amino}carbonyl)piperidine-1-carboxylate]
4 | 74% | COc1cccc(C2CCc3ccc(C(=O)NO)cc3C2)c1 (centres unmarked) [Compound I-119, N-hydroxy-7-(3-methoxyphenyl)-5,6,7,8-tetrahydronaphthalene-2-carboxamide]
5 | 92% | CC(=O)Nc1cccc(C2CCc3ccc(C(=O)NO)cc3C2)c1 (centres unmarked) [Compound I-92, 7-[3-(acetylamino)phenyl]-N-hydroxy-5,6,7,8-tetrahydronaphthalene-2-carboxamide]
6 | 81% | O=C(NO)c1ccc2c(c1)CC(c1cccc(C(F)(F)F)c1)CC2 (centres unmarked) [Compound I-115, N-hydroxy-7-[3-(trifluoromethyl)phenyl]-5,6,7,8-tetrahydronaphthalene-2-carboxamide]
7 | 93% | Nc1cc(C2CCc3ccc(C(=O)NO)cc3C2)ncn1 (centres unmarked) [Compound I-98, 7-(6-aminopyrimidin-4-yl)-N-hydroxy-5,6,7,8-tetrahydronaphthalene-2-carboxamide]
8 | 85% | O=C(NO)c1ccc2c(c1)CC(Nc1cccc(Cl)c1)CC2 (centres unmarked) [Compound I-82, 7-[(3-chlorophenyl)amino]-N-hydroxy-5,6,7,8-tetrahydronaphthalene-2-carboxamide]
9 | 62% | COc1cccc2cc(C(=O)NC3CCCc4cc(C(=O)NO)ccc43)oc12 (centres unmarked) [Compound I-33, N-{6-[(hydroxyamino)carbonyl]-1,2,3,4-tetrahydronaphthalen-1-yl}-7-methoxy-1-benzofuran-2-carboxamide]
10 | 90% | CC(C)(C)C(=O)N[C@H]1CCc2ccc(C(=O)NO)cc2C1 [Compound I-75, (7S)-7-[(2,2-dimethylpropanoyl)amino]-N-hydroxy-5,6,7,8-tetrahydronaphthalene-2-carboxamide]
11 | 34% | O=C(Cc1c(F)cccc1F)NC1CCCc2cc(C(=O)NO)ccc21 (centres unmarked) [Compound I-1, 5-{[(2,6-difluorophenyl)acetyl]amino}-N-hydroxy-5,6,7,8-tetrahydronaphthalene-2-carboxamide]
12 | 92% | O=C(NO)c1ccc2c(c1)CCC(Oc1ccccc1)C2 (centres unmarked) [Compound I-229, N-hydroxy-6-phenoxy-5,6,7,8-tetrahydronaphthalene-2-carboxamide]
13 | 65% | COc1ccccc1-c1cc(C(=O)N[C@H]2CCCc3cc(C(=O)NO)ccc32)[nH]n1 [Compound I-68, N-{(1S)-6-[(hydroxyamino)carbonyl]-1,2,3,4-tetrahydronaphthalen-1-yl}-3-(2-methoxyphenyl)-1H-pyrazole-5-carboxamide]
14 | 81% | COc1ccccc1C1CCc2ccc(C(=O)NO)cc2C1 (centres unmarked) [Compound I-116, N-hydroxy-7-(2-methoxyphenyl)-5,6,7,8-tetrahydronaphthalene-2-carboxamide]
15 | 84% | O=C(NO)c1ccc2c(c1)CCC(NCc1ccncc1)C2 (centres unmarked) [Compound I-107, N-hydroxy-6-[(pyridin-4-ylmethyl)amino]-5,6,7,8-tetrahydronaphthalene-2-carboxamide]
16 | 34% | Cn1cccc1C(=O)NC1CCCc2cc(C(=O)NO)ccc21 (centres unmarked) [Compound I-18, N-{6-[(hydroxyamino)carbonyl]-1,2,3,4-tetrahydronaphthalen-1-yl}-1-methyl-1H-pyrrole-2-carboxamide]
17 | 93% | CCN(CC)CCNC(=O)c1cc(OC2CCc3cc(C(=O)NO)ccc3C2)ccn1 (centres unmarked) [Compound I-226, N-[2-(diethylamino)ethyl]-4-({6-[(hydroxyamino)carbonyl]-1,2,3,4-tetrahydronaphthalen-2-yl}oxy)pyridine-2-carboxamide]
18 | 53% | O=C(NO)c1ccc2c(c1)CCC(c1ccccc1C(F)(F)F)C2 (centres unmarked) [Compound I-109, N-hydroxy-6-[2-(trifluoromethyl)phenyl]-5,6,7,8-tetrahydronaphthalene-2-carboxamide]
19 | 90% | O=C(NO)c1ccc2c(c1)CCC(Oc1ccnc(Nc3ccc(Cl)cc3)c1)C2 (centres unmarked) [Compound I-228, 6-({2-[(4-chlorophenyl)amino]pyridin-4-yl}oxy)-N-hydroxy-5,6,7,8-tetrahydronaphthalene-2-carboxamide]
20 | 74% | Cc1ccc(-c2cc(C(=O)NC3CCCc4cc(C(=O)NO)ccc43)[nH]n2)cc1 (centres unmarked) [Compound I-35, N-{6-[(hydroxyamino)carbonyl]-1,2,3,4-tetrahydronaphthalen-1-yl}-3-(4-methylphenyl)-1H-pyrazole-5-carboxamide]
21 | 11% | CC(C)(C)CC(=O)NC1CCCc2cc(C(=O)NO)ccc21 (centres unmarked) [Compound I-5, 5-[(3,3-dimethylbutanoyl)amino]-N-hydroxy-5,6,7,8-tetrahydronaphthalene-2-carboxamide]
22 | 63% | O=C(NO)c1ccc2c(c1)CCC(CCc1cccc(F)c1)C2 (centres unmarked) [Compound I-103, 6-[2-(3-fluorophenyl)ethyl]-N-hydroxy-5,6,7,8-tetrahydronaphthalene-2-carboxamide]
23 | 82% | Cc1c(C(=O)NC2CCc3cc(C(=O)NO)ccc3C2)cc(-c2ccccc2)n1CCCN1CCOCC1 (centres unmarked) [Compound I-47, N-{6-[(hydroxyamino)carbonyl]-1,2,3,4-tetrahydronaphthalen-2-yl}-2-methyl-1-(3-morpholin-4-ylpropyl)-5-phenyl-1H-pyrrole-3-carboxamide]
24 | 30% | O=C(NO)c1ccc2c(c1)CCCC2NC(=O)c1ccc(C(F)(F)F)cc1 (centres unmarked) [Compound I-20, N-hydroxy-5-{[4-(trifluoromethyl)benzoyl]amino}-5,6,7,8-tetrahydronaphthalene-2-carboxamide]
25 | 22% | Cc1nc(C(F)(F)F)c(C(=O)NC2CCCc3cc(C(=O)NO)ccc32)s1 (centres unmarked) [Compound I-7, N-{6-[(hydroxyamino)carbonyl]-1,2,3,4-tetrahydronaphthalen-1-yl}-2-methyl-4-(trifluoromethyl)-1,3-thiazole-5-carboxamide]

Row | Compound | inhibition at 0.412 µM
26 | CC(C)(C)C(=O)N1C2CCC1c1cc(C(=O)NO)ccc12 (centres unmarked) [Compound I-201, 9-(2,2-dimethylpropanoyl)-N-hydroxy-1,2,3,4-tetrahydro-1,4-epiminonaphthalene-6-carboxamide] | 29%
27 | O=C(NO)c1ccc2c(c1)C1CCC2N1C(=O)c1sc2ccccc2c1Cl (centres unmarked) [Compound I-203, 9-[(3-chloro-1-benzothien-2-yl)carbonyl]-N-hydroxy-1,2,3,4-tetrahydro-1,4-epiminonaphthalene-6-carboxamide] | 53%
28 | COc1ccc(C(=O)N2C3CCC2c2cc(C(=O)NO)ccc23)cc1 (centres unmarked) [Compound I-198, N-hydroxy-9-(4-methoxybenzoyl)-1,2,3,4-tetrahydro-1,4-epiminonaphthalene-6-carboxamide] | 60%
29 | Cc1nc(-c2ccccn2)sc1C(=O)N1C2CCC1c1cc(C(=O)NO)ccc12 (centres unmarked) [Compound I-206] | 18%
